Data published in PubChem BioAssay (NCI).
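Protocol summary: plate cells (96-well), add compound at 5 concentrations, incubate 48 h, interpolate endpoints linearly. GI50 is the concentration that inhibits growth by half. TGI: concentration producing complete growth inhibition.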

Legend:
Experiment in all cases: NCI-60 cell line screen, 48 h
A549 NSCLC = test system: A549 NSCLC
EKVX NSCLC = test system: EKVX NSCLC
HT29 colon = test system: HT29 colon
KM12 colon = test system: KM12 colon
MALME-3M melanoma = test system: MALME-3M melanoma
MDA-MB-435 = test system: MDA-MB-435
SK-MEL-2 melanoma = test system: SK-MEL-2 melanoma
SR leukemia = test system: SR leukemia
T-47D breast = test system: T-47D breast
TK-10 renal = test system: TK-10 renal

| SMILES | TGI (A549 NSCLC) [µM] | TGI (EKVX NSCLC) [µM] | TGI (HT29 colon) [µM] | TGI (KM12 colon) [µM] | TGI (MALME-3M melanoma) [µM] | TGI (MDA-MB-435) [µM] | TGI (SK-MEL-2 melanoma) [µM] | TGI (SR leukemia) [µM] | TGI (T-47D breast) [µM] | TGI (TK-10 renal) [µM] | GI50 (A549 NSCLC) [µM] | GI50 (EKVX NSCLC) [µM] | GI50 (HT29 colon) [µM] | GI50 (KM12 colon) [µM] | GI50 (MALME-3M melanoma) [µM] | GI50 (MDA-MB-435) [µM] | GI50 (SK-MEL-2 melanoma) [µM] | GI50 (SR leukemia) [µM] | GI50 (T-47D breast) [µM] | GI50 (TK-10 renal) [µM] |
| --- | --- | --- | --- | --- | --- | --- | --- | --- | --- | --- | --- | --- | --- | --- | --- | --- | --- | --- | --- | --- |
| CO[C@H]1Nc2c(ccc(C)c2O)C(=O)N2C=C(/C=C/C(N)=O)C[C@@H]12 | > 72.3 | 1.03 | 1.51 | 7.2 | 0.0591 | 0.0293 | 0.0223 | > 100 | > 7.99 | 7.95 | – | – | – | – | – | – | – | – | – | – |
| N[C@H](CCC(=O)N[C@@H](Cc1c[nH]c2ccccc12)C(=O)O)C(=O)O | > 100 | > 100 | > 100 | > 100 | > 100 | > 100 | > 100 | > 100 | > 100 | > 100 | > 100 | > 100 | > 100 | > 100 | > 100 | > 100 | > 100 | > 100 | > 100 | > 100 |
| O=C(c1ccco1)c1c(C(F)(F)F)n([O-])c2ccc(C(F)(F)F)cc2[n+]1=O | 0.7 | 2.07 | 0.674 | 0.973 | 1.47 | 2.56 | 3.49 | 0.408 | 1.75 | 2.3 | 0.254 | 0.727 | 0.243 | 0.467 | 0.595 | 1.16 | 1.71 | 0.127 | 0.344 | 0.926 |
| COc1cc2c(Nc3cc(Cl)c(OC)c(Cl)c3)c(C#N)cnc2cc1OCCCN1CCN(C)CC1 | 4.12 | 18.9 | 3.25 | 10.1 | 3.7 | 3.2 | 2.9 | 4.41 | 9.65 | 2.43 | 1.5 | 1.17 | 0.927 | 2.19 | 1.6 | 1.24 | 1.32 | 1.53 | 2.02 | 0.253 |
| COC(c1ccc(C(C)(C)C)cc1)(c1ccc(C(C)(C)C)cc1)c1ccc(C(C)(C)C)cc1 | > 100 | > 100 | > 100 | > 100 | > 100 | > 100 | > 100 | > 100 | > 100 | > 100 | – | – | – | – | – | – | – | – | – | – |
| Cc1ccc(OCCOCCOCCOCCOc2ccc(C)n(O)c2=S)c(=S)n1O | > 100 | > 100 | > 100 | > 100 | > 52.7 | > 100 | > 100 | > 100 | > 100 | > 100 | 0.0449 | 0.0213 | < 0.01 | 0.0818 | 0.0644 | 0.366 | 4.86 | 0.0616 | < 0.01 | 0.527 |
| C=CC(=O)N1CN(C(=O)C=C)CN(C(=O)C=C)C1 | 81.7 | 26.2 | 10.4 | 38.6 | 7.2 | 10.7 | 47.4 | 6.82 | 12.8 | 5.7 | 21.2 | 9.02 | 3.26 | 18.5 | 2.81 | 2.96 | 5.46 | 2.46 | 2.32 | 2.36 |
| NCCNCC1CCNCC1 | > 100 | > 100 | > 100 | > 100 | > 100 | > 100 | > 100 | > 100 | > 100 | > 100 | – | – | – | – | – | – | – | – | – | – |
| O=C(/C(=C\c1c(-c2ccccc2)[nH]c2ccccc12)S(=O)(=O)c1ccccc1)c1ccccc1 | > 100 | > 100 | > 100 | > 100 | > 100 | > 100 | > 100 | > 100 | > 100 | > 100 | 35 | 4.56 | > 100 | 5.06 | > 100 | 3.94 | > 100 | 9.91 | 3.44 | > 100 |
| COc1ccc(-c2nn(-c3cccc(Cl)c3)cc2-c2cc(-c3ccccc3)[nH]c(=O)c2C#N)cc1 | > 50 | > 50 | > 50 | > 50 | > 50 | > 50 | 9.35 | 15.8 | 7.43 | 4.6 | 2.26 | 1.37 | 19.5 | > 50 | 13.7 | > 50 | 2.13 | 7.74 | 1.64 | 1.47 |
